From patent US7348427B2, “Antipathogenic benzamide compounds” (Genesoft Pharmaceuticals, Inc., priority 2001, dated 2008)

How the values were obtained:
S. pneumoniae ATCC 49619 = test: MIC, NCCLS broth microdilution assay; format: cell-based, Streptococcus pneumoniae; settings: H = S. pneumoniae ATCC 49619
Outline: (§1)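 MICs were determined by NCCLS broth microdilution following documents M7-A4 and M11-A4 (1997).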

[1] = system: methicillin resistant Staphylococcus aureus ATCC 33591; test: Murine neutropenic thigh model; format: in vivo; settings: neutropenic female CF1 mice, 6 hr after treatment
Experimental: A S. aureus ATCC 33591 culture was grown to log phase overnight and diluted in phosphate buffered saline (pH 7.2) to an optical density of about 0.1 at 600 nm, giving an approximate concentration of 10^8 cfu/mL. The suspension was diluted 1:100 in phosphate buffered saline (pH 7.2) for a final concentration of 10^6 cfu/mL.
Outbred female CF1 mice (approx. 20 gram body weight) were rendered neutropenic by treatment with cyclophosphamide (200 mg/kg body weight, intraperitoneal injection) at 2 and 4 days prior to inoculation. Groups of 5 mice were inoculated with 0.05 mL of the bacteria (approx. 10^6 cfu/mL) into the anterior thigh. Each group was treated intravenously two hours post infection with vehicle (phosphate buffered saline) or test compound. The mice were sacrificed at either 6 or 24 hrs after treatment and thighs were collected aseptically. Each thigh was weighed, placed into sterile saline, and homogenized. The tissue homogenates were diluted appropriately for plating on agar plates. Colony counts were recorded (cfu/gram) and compared to control groups.
In vivo efficacy was shown by a decrease in colony count (log cfu/gram of tissue) in the compound-treated animals when compared against the colony count in animals given only the vehicle.

E. faecalis ATCC 29212 = test: MIC, NCCLS broth microdilution assay; format: cell-based, Enterococcus faecalis; settings: C = E. faecalis ATCC 29212
Outline: as §1

[2] = system: Streptococcus pneumoniae (ATCC 51422, a penicillin resistant strain (PRSP)); test: MIC, NCCLS broth microdilution assay; format: cell-based; settings: I = S. pneumoniae ATCC 51422
Outline: (§2)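 Broth microdilution, NCCLS M7-A4/M11-A4/M27-T guidelines; readout = minimal inhibitory concentration. Candida: Manual of Clinical Microbiology method.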

[3] = system: Staphylococcus epidermidis (ATCC 12228); test: MIC, NCCLS broth microdilution assay; format: cell-based; settings: G = S. epidermidis ATCC 12228
Outline: as §2

[4] = system: Bacillus cereus (ATCC 11778); test: MIC, NCCLS broth microdilution assay; format: cell-based; settings: A = B. cereus ATCC 11778
Outline: as §2

[5] = system: Staphylococcus aureus (ATCC 13709, a methicillin sensitive strain (MSSA)); test: MIC, NCCLS broth microdilution assay; format: cell-based; settings: E = S. aureus ATCC 13709
Outline: as §2

[6] = system: Staphylococcus aureus (ATCC 27660, a methicillin resistant strain (MRSA)); test: MIC, NCCLS broth microdilution assay; format: cell-based; settings: F = S. aureus ATCC 27660
Outline: as §2

[7] = system: Enterococcus faecium (ATCC 51559, a vancomycin resistant strain (VRE)); test: MIC, NCCLS broth microdilution assay; format: cell-based; settings: D = E. faecium ATCC 51559
Outline: as §2

[8] = system: Candida albicans (ATCC 38247); test: Antifungal MIC assay; format: cell-based; settings: B = C. albicans ATCC 38247
Outline: as §2

[9] = 25 mg/kg intravenously two hours post infection
[10] = 50 mg/kg intravenously two hours post infection

## Cn1cc(NC(=O)c2cc(NC(=O)c3cc(NC(=O)c4ccc(F)cc4F)c[nH]3)cn2C)cc1C(=O)NCCN1CCCCC1 [Compound A-4]
S. pneumoniae ATCC 49619
  Minimum Inhibitory Concentration (MIC): +++ (+++ = MIC ≦ 4)
[1]; [9]
  Colony Count (log cfu/gram) Compound: 5.75 log cfu/gram
[1]; [10]
  Colony Count (log cfu/gram) Compound: 4.99 log cfu/gram
E. faecalis ATCC 29212
  Minimum Inhibitory Concentration (MIC): + (+ = 12 ≦ MIC ≦ 32)
[2]
  Minimum Inhibitory Concentration (MIC): +++ (+++ = MIC ≦ 4)
[3]
  Minimum Inhibitory Concentration (MIC): +++ (+++ = MIC ≦ 4)
[4]
  Minimum Inhibitory Concentration (MIC): +++ (+++ = MIC ≦ 4)
[5]
  Minimum Inhibitory Concentration (MIC): +++ (+++ = MIC ≦ 4)
[6]
  Minimum Inhibitory Concentration (MIC): +++ (+++ = MIC ≦ 4)
[7]
  Minimum Inhibitory Concentration (MIC): +++ (+++ = MIC ≦ 4)
[8]
  Minimum Inhibitory Concentration (MIC): ++ (++ = 4 < MIC < 12)

## Cn1cc(NC(=O)c2cc(NC(=O)c3cc(NC(=O)c4ccc(F)cc4F)c[nH]3)cn2C)cc1C(=O)NCCN1CCC(O)CC1 [Compound A-8]
S. pneumoniae ATCC 49619
  Minimum Inhibitory Concentration (MIC): +++ (+++ = MIC ≦ 4)
[1]; [9]
  Colony Count (log cfu/gram) Compound: 5.85 log cfu/gram
[1]; [10]
  Colony Count (log cfu/gram) Compound: 4.45 log cfu/gram
E. faecalis ATCC 29212
  Minimum Inhibitory Concentration (MIC): +++ (+++ = MIC ≦ 4)
[2]
  Minimum Inhibitory Concentration (MIC): +++ (+++ = MIC ≦ 4)
[3]
  Minimum Inhibitory Concentration (MIC): +++ (+++ = MIC ≦ 4)
[4]
  Minimum Inhibitory Concentration (MIC): +++ (+++ = MIC ≦ 4)
[5]
  Minimum Inhibitory Concentration (MIC): +++ (+++ = MIC ≦ 4)
[6]
  Minimum Inhibitory Concentration (MIC): +++ (+++ = MIC ≦ 4)
[7]
  Minimum Inhibitory Concentration (MIC): +++ (+++ = MIC ≦ 4)
[8]
  Minimum Inhibitory Concentration (MIC): + (+ = 12 ≦ MIC ≦ 32)

## Cn1cc(NC(=O)c2cc(NC(=O)c3cc(NC(=O)c4ccc(Cl)cc4F)c[nH]3)cn2C)cc1C(=O)NCCN1CCC(F)CC1 [Compound A-26]
S. pneumoniae ATCC 49619
  Minimum Inhibitory Concentration (MIC): +++ (+++ = MIC ≦ 4)
[1]; [9]
  Colony Count (log cfu/gram) Compound: 6.37 log cfu/gram
[1]; [10]
  Colony Count (log cfu/gram) Compound: 5.34 log cfu/gram
E. faecalis ATCC 29212
  Minimum Inhibitory Concentration (MIC): +++ (+++ = MIC ≦ 4)
[4]
  Minimum Inhibitory Concentration (MIC): +++ (+++ = MIC ≦ 4)
[5]
  Minimum Inhibitory Concentration (MIC): +++ (+++ = MIC ≦ 4)
[6]
  Minimum Inhibitory Concentration (MIC): +++ (+++ = MIC ≦ 4)
[8]
  Minimum Inhibitory Concentration (MIC): ++ (++ = 4 < MIC < 12)

## Cn1cc(NC(=O)c2cc(NC(=O)c3cc(NC(=O)c4ccc(Cl)cc4F)cn3C)cn2C)cc1C(=O)NCCN1CCOCC1 [Compound B-47]
S. pneumoniae ATCC 49619
  Minimum Inhibitory Concentration (MIC): +++ (+++ = MIC ≦ 4)
[1]; [10]
  Colony Count (log cfu/gram) Compound: 7.53 log cfu/gram
E. faecalis ATCC 29212
  Minimum Inhibitory Concentration (MIC): +++ (+++ = MIC ≦ 4)
[2]
  Minimum Inhibitory Concentration (MIC): +++ (+++ = MIC ≦ 4)
[3]
  Minimum Inhibitory Concentration (MIC): +++ (+++ = MIC ≦ 4)
[4]
  Minimum Inhibitory Concentration (MIC): +++ (+++ = MIC ≦ 4)
[6]
  Minimum Inhibitory Concentration (MIC): +++ (+++ = MIC ≦ 4)
[7]
  Minimum Inhibitory Concentration (MIC): +++ (+++ = MIC ≦ 4)
[8]
  Minimum Inhibitory Concentration (MIC): >32 µg/mL

## CN(C)CCCNC(=O)c1cc(NC(=O)c2cc(NC(=O)c3cc(NC(=O)c4ccc(Cl)cc4F)cn3C)cn2C)cn1C [Compound B-50]
S. pneumoniae ATCC 49619
  Minimum Inhibitory Concentration (MIC): +++ (+++ = MIC ≦ 4)
[1]; [10]
  Colony Count (log cfu/gram) Compound: 6.58 log cfu/gram
E. faecalis ATCC 29212
  Minimum Inhibitory Concentration (MIC): +++ (+++ = MIC ≦ 4)
[4]
  Minimum Inhibitory Concentration (MIC): +++ (+++ = MIC ≦ 4)
[5]
  Minimum Inhibitory Concentration (MIC): +++ (+++ = MIC ≦ 4)
[6]
  Minimum Inhibitory Concentration (MIC): +++ (+++ = MIC ≦ 4)
[8]
  Minimum Inhibitory Concentration (MIC): +++ (+++ = MIC ≦ 4)

## Cn1cc(NC(=O)c2cc(NC(=O)c3cc(NC(=O)c4ccc(Cl)cc4)cn3C)cn2C)cc1C(=O)NCCN1CCOCC1 [Compound B-56]
S. pneumoniae ATCC 49619
  Minimum Inhibitory Concentration (MIC): +++ (+++ = MIC ≦ 4)
[1]; [10]
  Colony Count (log cfu/gram) Compound: 6.38 log cfu/gram
E. faecalis ATCC 29212
  Minimum Inhibitory Concentration (MIC): +++ (+++ = MIC ≦ 4)
[4]
  Minimum Inhibitory Concentration (MIC): +++ (+++ = MIC ≦ 4)
[5]
  Minimum Inhibitory Concentration (MIC): +++ (+++ = MIC ≦ 4)
[6]
  Minimum Inhibitory Concentration (MIC): +++ (+++ = MIC ≦ 4)
[8]
  Minimum Inhibitory Concentration (MIC): >32 µg/mL
